Tests used:
IMP-1 = IMP-1 (Serratia marcescens, UniProt P52699); experiment: biochemical; format: biochemical; conditions: fluorescence assay, CCF2-FA substrate, 2 pM enzyme, 2 hours at 25° C.; read-out: IMP-1 IC50
Protocol: (§1) Enzyme Activity: Determination of IC50
(§2) The Class B enzyme activities were measured in the presence of the test inhibitor in a fluorescence assay against a commercially available substrate consisting of a cephalosporin core linking 7-hydroxycoumarin to fluorescein (CCF2-FA). […] In a 384-well microplate, the test inhibitor was incubated with the metallo-β-lactamase enzyme and the substrate for 2 hours at 25° C. […] The IC50 value was determined from semi-logarithmic plots of enzyme inhibition versus inhibitor concentration, with a curve generated using a 4-parameter fit.

NDM-1 = NDM-1 (Klebsiella pneumoniae, UniProt C7C422); experiment: biochemical; format: biochemical; conditions: fluorescence assay, CCF2-FA substrate, 1 pM enzyme, 2 hours at 25° C.; read-out: NDM-1 IC50
Protocol: as §1, §2

[1] = tested on: Serratia marcescens expressing IMP-1 (CL5741); format: cell-based; conditions: for Serratia marcescens MITC95: IMP-1 strain CL5741, with imipenem 1 μg/ml, 95% inhibition of growth; for Serratia marcescens expressing IMP-1 (CL5741) MITC95: with imipenem 1 μg/ml, 95% inhibition of bacterial growth
Protocol: (§3) Antibiotic Potentiation Activity: Determination of Synergistic Concentration
(§4) The bacterial strains tested included the clinical strains Escherichia coli expressing NDM-1 (CLB30005, CLB30016), Serratia marcescens expressing IMP-1 (CL5741), and Klebsiella pneumoniae expressing VIM-1 (IHMA599644). Inhibitor activity was measured in the presence and absence of imipenem in a 384-well microplate.
(§5) The clinical strains CLB30016, CL5741 and IHMA599644 were grown on trypticase soy agar containing 5% sheep's blood. The bacteria on agar plates were incubated at 35° C. with humidity overnight. The following day, individual colonies from each clinical strain were picked and resuspended in 5 ml saline to attain an OD600 of […], for CLB30016, CL5741 and IHMA599644, respectively. These were further diluted 1:100 into 1.1×CAMHB and used to inoculate the test wells as described below.
(§6) Imipenem in 10 mM 3-(N-morpholino)propanesulfonic acid (MOPS, pH 7) was stored in single use aliquots at −80° C. […] On the day of the assay, 4 μl of antibiotic was added to 45 ul of bacteria followed by 1 μl of test compound and mixed by pipetting and with an orbital shaker. The concentration of antibiotic used in the assay was 1 μg/ml. Microplates were covered and incubated at 35° C. for 22 hours to 24 hours. At the end of the incubation, absorbance was determined using a spectrophotometer.

[2] = tested on: Klebsiella pneumoniae expressing VIM-1 (IHMA599644); format: cell-based; conditions: for Klebsiella pneumoniae MITC95: VIM-1 strain IHMA599644, with imipenem 1 μg/ml, 95% inhibition of growth; for Klebsiella pneumoniae expressing VIM-1 (IHMA599644) MITC95: with imipenem 1 μg/ml, 95% inhibition of bacterial growth
Protocol: as §3, §4, §5, §6

[3] = tested on: Escherichia coli expressing NDM-1 (CLB30005, CLB30016); format: cell-based; conditions: with imipenem 1 μg/ml; for Escherichia coli MITC95: NDM-1 strain, 95% inhibition of growth; for Escherichia coli expressing NDM-1 (CLB30016) MITC95: 95% inhibition of bacterial growth
Protocol: as §3, §4, §5, §6

[4] = tested on: Pseudomonas aeruginosa efflux+ (MB9798), IMP-1; format: cell-based; parameters: Concentration of metallo-β-lactamase inhibitor which restores susceptibility of efflux + (MB9798) strain to imipenem: unit not given here; conditions: C, D serine β-lactamase inhibitor closely related to relebactam; for P. aeruginosa expressing IMP-1, efflux + (MB9798) MITC95: concentration restoring susceptibility to imipenem at 2 μg/mL in the presence of a class A; for Concentration of metallo-β-lactamase inhibitor which restores susceptibility of efflux + (MB9798) strain to imipenem: imipenem at 2 μg/mL, in the presence of a class A
Excerpt: (§7) The strain background was Pseudomonas aeruginosa PAO1.
(§8) The strain set was then used as a pair to determine the effect of metallo-β-lactamase inhibitors of Formula I on the MIC of imipenem and/or ceftazidime. A fixed concentration of antibiotic was included in standard microbroth MIC tests, usually at the CLSI (Clinical and Laboratory Standards Institute) breakpoint concentration. A fixed amount of a class A/C beta-lactamase inhibitor was also included to inhibit the resident Pseudomonas AmpC enzyme. A serial titration of the metallo-β-lactamase inhibitor was included and the concentration of metallo-β-lactamase inhibitor which restores susceptibility of the strain to the included antibiotic was recorded. That concentration of metallo-β-lactamase inhibitor was then compared between the two strains to determine the fold difference between the efflux+ (MB9798) and efflux− (MB9799) strains. This was taken as an indication of the extent to which the MBLi is subject to efflux.

[5] = tested on: Pseudomonas aeruginosa efflux− (MB9799), IMP-1; format: cell-based; conditions: C, D serine β-lactamase inhibitor closely related to relebactam; for P. aeruginosa expressing IMP-1, efflux − (MB9799) MITC95: concentration restoring susceptibility to imipenem at 2 μg/mL in the presence of a class A; for Concentration of metallo-β-lactamase inhibitor which restores susceptibility of efflux − (MB9799) strain to imipenem: imipenem at 2 μg/mL, in the presence of a class A
Excerpt: as §7, §8

Sequence of IMP-1 (P52699 whole entry, looked up, species assumed): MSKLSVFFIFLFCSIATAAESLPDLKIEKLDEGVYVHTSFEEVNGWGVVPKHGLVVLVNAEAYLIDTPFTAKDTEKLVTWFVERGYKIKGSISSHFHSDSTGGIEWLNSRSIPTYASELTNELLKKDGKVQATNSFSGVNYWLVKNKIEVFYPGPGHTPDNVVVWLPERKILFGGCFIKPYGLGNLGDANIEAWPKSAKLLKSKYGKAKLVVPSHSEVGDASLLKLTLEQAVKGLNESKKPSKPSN
Sequence of NDM-1 (C7C422 whole entry, looked up, species assumed): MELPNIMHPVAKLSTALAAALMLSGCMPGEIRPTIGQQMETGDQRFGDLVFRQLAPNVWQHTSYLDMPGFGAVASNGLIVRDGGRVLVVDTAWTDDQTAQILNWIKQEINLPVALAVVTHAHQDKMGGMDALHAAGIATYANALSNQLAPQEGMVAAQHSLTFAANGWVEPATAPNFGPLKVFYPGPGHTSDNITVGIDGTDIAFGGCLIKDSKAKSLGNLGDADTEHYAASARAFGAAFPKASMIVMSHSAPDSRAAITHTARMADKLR

SMILES: Cn1nnc2c(-c3ccc(S(=O)(=O)N[C@H]4CCNC4)c(S(N)(=O)=O)c3-c3nn[nH]n3)cccc21 [Example 293, (S)-4-(1-methyl-1H-benzo[d][1,2,3]triazol-4-yl)-N1-(pyrrolidin-3-yl)-3-(2H-tetrazol-5-yl)benzene-1,2-disulfonamide]
- IC50 (IMP-1): 1.3 nM
- IC50 (NDM-1): 0.285 nM
- Serratia marcescens MITC95 [1]: 3.125 µM
- Klebsiella pneumoniae MITC95 [2]: 3.125 µM
- Escherichia coli MITC95 [3]: 3.125 µM
- P. aeruginosa expressing IMP-1, efflux + (MB9798) MITC95 [4]: 3.125 µM
- P. aeruginosa expressing IMP-1, efflux − (MB9799) MITC95 [5]: 1.563 µM

SMILES: Nc1nc2c(-c3ccc(S(=O)(=O)NC[C@]4(F)CCCNC4)c(S(N)(=O)=O)c3-c3nnn[nH]3)cccc2s1.O=CO [Example 122, (S)-3-(((4-(2-aminobenzo[d]thiazol-4-yl)-2-sulfamoyl-3-(1H-tetrazol-5-yl)phenyl)sulfonamido)methyl)-3-fluoropiperidin-1-ium formate]
- IC50 (IMP-1): 0.282 nM
- IC50 (NDM-1): 0.0329 nM
- Serratia marcescens expressing IMP-1 (CL5741) MITC95 [1]: 1.563 µM
- Klebsiella pneumoniae expressing VIM-1 (IHMA599644) MITC95 [2]: 3.125 µM
- Escherichia coli expressing NDM-1 (CLB30016) MITC95 [3]: 1.563 µM
- P. aeruginosa expressing IMP-1, efflux + (MB9798) MITC95 [4]: 3.125 µM
- P. aeruginosa expressing IMP-1, efflux − (MB9799) MITC95 [5]: 1.563 µM

SMILES: Nc1ccc(-c2ccc(S(=O)(=O)N[C@@H]3CCCNC3)c(S(N)(=O)=O)c2-c2nn[nH]n2)cn1 [Example 490, (R)-4-(6-aminopyridin-3-yl)-N1-(piperidin-3-yl)-3-(2H-tetrazol-5-yl)benzene-1,2-disulfonamide]
- IC50 (IMP-1): 0.176 nM
- IC50 (NDM-1): 0.0439 nM
- Serratia marcescens MITC95 [1]: 1.563 µM
- Klebsiella pneumoniae MITC95 [2]: 3.125 µM
- Escherichia coli MITC95 [3]: 0.7813 µM
- Concentration of metallo-β-lactamase inhibitor which restores susceptibility of efflux + (MB9798) strain to imipenem [4]: 1.563
- Concentration of metallo-β-lactamase inhibitor which restores susceptibility of efflux − (MB9799) strain to imipenem [5]: 1.563

SMILES: NCCNS(=O)(=O)c1ccc(-c2cccc(-c3nc[nH]n3)c2)c(-c2nn[nH]n2)c1S(N)(=O)=O [Example 224, N^4-(2-aminoethyl)-2-(2H-tetrazol-5-yl)-3′-(1H-1,2,4-triazol-3-yl)-[1,1′-biphenyl]-3,4-disulfonamide]
- IC50 (IMP-1): 0.412 nM
- IC50 (NDM-1): 0.142 nM
- Serratia marcescens expressing IMP-1 (CL5741) MITC95 [1]: 1.563 µM
- Klebsiella pneumoniae expressing VIM-1 (IHMA599644) MITC95 [2]: 3.125 µM
- Escherichia coli expressing NDM-1 (CLB30016) MITC95 [3]: 1.563 µM
- P. aeruginosa expressing IMP-1, efflux + (MB9798) MITC95 [4]: 1.563 µM
- P. aeruginosa expressing IMP-1, efflux − (MB9799) MITC95 [5]: 0.7813 µM

SMILES: C[C@@H](CN)NS(=O)(=O)c1ccc(-c2cc(F)cc3[nH]c(N)nc23)c(-c2nn[nH]n2)c1S(N)(=O)=O [Example 397]
- IC50 (IMP-1): 1.6 nM
- IC50 (NDM-1): 0.161 nM
- Serratia marcescens MITC95 [1]: 0.7813 µM
- Klebsiella pneumoniae MITC95 [2]: 3.125 µM
- Escherichia coli MITC95 [3]: 3.125 µM
- Concentration of metallo-β-lactamase inhibitor which restores susceptibility of efflux + (MB9798) strain to imipenem [4]: 1.563
- Concentration of metallo-β-lactamase inhibitor which restores susceptibility of efflux − (MB9799) strain to imipenem [5]: 1.563

SMILES: C[N+](C)(C)CCCNS(=O)(=O)c1ccc(-c2cccc3sc(N)nc23)c(-c2nnn[nH]2)c1S(N)(=O)=O.O=C([O-])C(F)(F)F [Example 392, 3-({[4-(2-amino-1,3-benzothiazol-4-yl)-2-sulfamoyl-3-(1H-tetrazol-5-yl)phenyl]sulfonyl}amino)-N,N,N-trimethylpropan-1-aminium trifluoroacetate]
- IC50 (IMP-1): 0.221 nM
- IC50 (NDM-1): 0.0318 nM
- Serratia marcescens MITC95 [1]: 3.125 µM
- Klebsiella pneumoniae MITC95 [2]: 12.5 µM
- Escherichia coli MITC95 [3]: 3.125 µM
- Concentration of metallo-β-lactamase inhibitor which restores susceptibility of efflux + (MB9798) strain to imipenem [4]: 1.563
- Concentration of metallo-β-lactamase inhibitor which restores susceptibility of efflux − (MB9799) strain to imipenem [5]: 3.125

SMILES: Nc1nc2c(-c3ccc(S(=O)(=O)NCCN4CCC4)c(S(N)(=O)=O)c3-c3nnn[nH]3)cccc2s1 [Example 21, 4-(2-amino-1,3-benzothiazol-4-yl)-N1-(2-azetidin-1-ylethyl)-3-(1H-tetrazol-5-yl)benzene-1,2-disulfonamide]
- IC50 (IMP-1): 0.383 nM
- IC50 (NDM-1): 0.0642 nM
- Serratia marcescens expressing IMP-1 (CL5741) MITC95 [1]: 3.125 µM
- Klebsiella pneumoniae expressing VIM-1 (IHMA599644) MITC95 [2]: 6.25 µM
- Escherichia coli expressing NDM-1 (CLB30016) MITC95 [3]: 6.25 µM
- P. aeruginosa expressing IMP-1, efflux + (MB9798) MITC95 [4]: 1.563 µM
- P. aeruginosa expressing IMP-1, efflux − (MB9799) MITC95 [5]: 1.563 µM

SMILES: Nc1ccc(-c2ccc(S(=O)(=O)N[C@H]3CCCNC3)c(S(N)(=O)=O)c2-c2nn[nH]n2)cn1 [Example 494, (S)-4-(6-aminopyridin-3-yl)-N1-(piperidin-3-yl)-3-(2H-tetrazol-5-yl)benzene-1,2-disulfonamide]
- IC50 (IMP-1): 0.808 nM
- IC50 (NDM-1): 0.276 nM
- Serratia marcescens MITC95 [1]: 1.563 µM
- Klebsiella pneumoniae MITC95 [2]: 3.125 µM
- Escherichia coli MITC95 [3]: 0.7813 µM
- Concentration of metallo-β-lactamase inhibitor which restores susceptibility of efflux + (MB9798) strain to imipenem [4]: 3.125
- Concentration of metallo-β-lactamase inhibitor which restores susceptibility of efflux − (MB9799) strain to imipenem [5]: 1.563

SMILES: CCOC(=O)c1sc(N)nc1-c1cccc(-c2ccc(S(=O)(=O)NC(CN)CN)c(S(N)(=O)=O)c2-c2nnn[nH]2)c1 [Example 431]
- IC50 (IMP-1): 0.133 nM
- IC50 (NDM-1): 0.0739 nM
- Serratia marcescens MITC95 [1]: 3.125 µM
- Klebsiella pneumoniae MITC95 [2]: 6.25 µM
- Escherichia coli MITC95 [3]: 3.125 µM
- Concentration of metallo-β-lactamase inhibitor which restores susceptibility of efflux + (MB9798) strain to imipenem [4]: 12.5
- Concentration of metallo-β-lactamase inhibitor which restores susceptibility of efflux − (MB9799) strain to imipenem [5]: 1.563

SMILES: CN(C)C(=O)c1ccccc1-c1ccc(S(=O)(=O)N[C@@H]2CCNC2)c(S(N)(=O)=O)c1-c1nnn[nH]1 [Example 129, (R)-N,N-dimethyl-4′-(N-(pyrrolidin-3-yl)sulfamoyl)-3′-sulfamoyl-2′-(1H-tetrazol-5-yl)-[1,1′-biphenyl]-2-carboxamide]
- IC50 (IMP-1): 9.07 nM
- IC50 (NDM-1): 0.279 nM
- Serratia marcescens expressing IMP-1 (CL5741) MITC95 [1]: 6.25 µM
- Klebsiella pneumoniae expressing VIM-1 (IHMA599644) MITC95 [2]: 12.5 µM
- Escherichia coli expressing NDM-1 (CLB30016) MITC95 [3]: 6.25 µM
- P. aeruginosa expressing IMP-1, efflux + (MB9798) MITC95 [4]: 12.5 µM
- P. aeruginosa expressing IMP-1, efflux − (MB9799) MITC95 [5]: 3.125 µM

SMILES: Nc1nc2c(-c3ccc(S(=O)(=O)NCCN4CCCCC4=O)c(S(N)(=O)=O)c3-c3nnn[nH]3)cccc2s1 [Example 33, 4-(2-amino-1,3-benzothiazol-4-yl)-N1-[2-(2-oxopiperidin-1-yl)ethyl]-3-(1H-tetrazol-5-yl)benzene-1,2-disulfonamide]
- IC50 (IMP-1): 0.275 nM
- IC50 (NDM-1): 0.0731 nM
- Serratia marcescens expressing IMP-1 (CL5741) MITC95 [1]: 6.25 µM
- Klebsiella pneumoniae expressing VIM-1 (IHMA599644) MITC95 [2]: 25 µM
- Escherichia coli expressing NDM-1 (CLB30016) MITC95 [3]: 25 µM
- P. aeruginosa expressing IMP-1, efflux + (MB9798) MITC95 [4]: 12.5 µM
- P. aeruginosa expressing IMP-1, efflux − (MB9799) MITC95 [5]: 3.125 µM

SMILES: C[C@H](N)CNS(=O)(=O)c1ccc(-c2ccnc(N)c2)c(-c2nn[nH]n2)c1S(N)(=O)=O [Example 421]
- IC50 (IMP-1): 1.14 nM
- IC50 (NDM-1): 0.196 nM
- Serratia marcescens MITC95 [1]: 0.7813 µM
- Klebsiella pneumoniae MITC95 [2]: 1.563 µM
- Escherichia coli MITC95 [3]: 0.3906 µM
- Concentration of metallo-β-lactamase inhibitor which restores susceptibility of efflux + (MB9798) strain to imipenem [4]: 1.563
- Concentration of metallo-β-lactamase inhibitor which restores susceptibility of efflux − (MB9799) strain to imipenem [5]: 0.7813
